Literature values in patent US7541371B2, “Method for treating a motor neuron disease” (Eisai R&D Management Co., Ltd., priority 2006, dated 2009).

Molecular target: T1, serotonin 1A receptor (Rattus norvegicus, UniProt P19327)
T1 construct: mixed with the receptor fraction of the hippocampus; from tissue; host or cells: rat hippocampus
T1 sequence (P19327 1-422): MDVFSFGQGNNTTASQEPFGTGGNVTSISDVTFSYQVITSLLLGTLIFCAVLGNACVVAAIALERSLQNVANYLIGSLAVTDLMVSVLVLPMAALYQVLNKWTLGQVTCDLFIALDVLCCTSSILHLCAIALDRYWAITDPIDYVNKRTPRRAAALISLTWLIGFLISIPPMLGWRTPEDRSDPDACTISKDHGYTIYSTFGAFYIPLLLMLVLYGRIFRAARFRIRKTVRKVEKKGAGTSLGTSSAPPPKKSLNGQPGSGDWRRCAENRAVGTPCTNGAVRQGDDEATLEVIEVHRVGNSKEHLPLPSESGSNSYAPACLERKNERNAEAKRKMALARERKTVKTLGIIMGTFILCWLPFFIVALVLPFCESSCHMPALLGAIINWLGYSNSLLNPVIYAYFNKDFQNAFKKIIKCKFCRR
Details: rat hippocampus receptor fraction, 0.5 nM [3H]8-hydroxy-dipropylaminotetralin; compounds 7 and 8, WO 99/18077; read-out: 5HT1a; cited from earlier work

CCN1CCN(c2nc(-c3ccc(OCC(C)(C)O)cc3)cc3sccc23)CC1 [Compound 8, 1-{4-[4-(4-ethylpiperazin-1-yl)thieno[3,2-c]pyridin-6-yl]phenoxy}-2-methylpropan-2-ol]
Ki: 54.9 nM
